The results in this text go back to patent US20110268807A1, “Biodegradable Microspheres and Methods of Use Thereof” (priority 2008, published 2011).

The nature of data set [1]: Release of atropine from hydrogel in medium at 37° C., static conditions. In kind it is physicochemical. From the text: FIG. 16 depicts release rate of atropine from hydrogel. […] Hydrogel for the second release test (B) was soaked in excess drug solution to reach maximum swelling. Almost no drug retention was observed; therefore, the release is approximately zero.
Data set [2] is described as follows: Atropine release per cycle (atropine content in filtrate), nanoparticles. The format is physicochemical. Particulars: FIG. 17B. From the text: FIGS. 17A and 17B depict atropine release. […] The first sharp decrease in atropine release would be related to the excess atropine in solution. The slow release characteristic of the second slope would be the drug release associated with nanoparticle degradation.

Take `CN1[C@@H]2CC[C@H]1C[C@@H](OC(=O)C(CO)c1ccccc1)C2` (stereo partly shown) [atropine]: the “atropine release from hydrogel” value in data set [1] (first preliminary test (A): hydrogel absorbed all of the drug solution, medium at 37° C., static conditions) was 68%; in data set [1] (second release test (B): hydrogel soaked in excess drug solution to maximum swelling, almost no drug retention), “approximately zero”. Also, in data set [1] (first preliminary test (A), burst effect), the “time course of atropine release from hydrogel” value is reported as “most of which occurred during the first two hours”. The “cumulative release percentage per cycle” value in data set [2] was “all the atropine was release by the seventh cycle”.
